Molecules are shown by their SMILES. pIC50: −log10 of the molar value.

Broadly, the pIC50 is the negative decadic logarithm of the IC50, by convention in mol/L.

The experiment concerns the target T1, myeloperoxidase (MPO) (Homo sapiens, UniProt P05164).
T1 sequence (P05164 49-745): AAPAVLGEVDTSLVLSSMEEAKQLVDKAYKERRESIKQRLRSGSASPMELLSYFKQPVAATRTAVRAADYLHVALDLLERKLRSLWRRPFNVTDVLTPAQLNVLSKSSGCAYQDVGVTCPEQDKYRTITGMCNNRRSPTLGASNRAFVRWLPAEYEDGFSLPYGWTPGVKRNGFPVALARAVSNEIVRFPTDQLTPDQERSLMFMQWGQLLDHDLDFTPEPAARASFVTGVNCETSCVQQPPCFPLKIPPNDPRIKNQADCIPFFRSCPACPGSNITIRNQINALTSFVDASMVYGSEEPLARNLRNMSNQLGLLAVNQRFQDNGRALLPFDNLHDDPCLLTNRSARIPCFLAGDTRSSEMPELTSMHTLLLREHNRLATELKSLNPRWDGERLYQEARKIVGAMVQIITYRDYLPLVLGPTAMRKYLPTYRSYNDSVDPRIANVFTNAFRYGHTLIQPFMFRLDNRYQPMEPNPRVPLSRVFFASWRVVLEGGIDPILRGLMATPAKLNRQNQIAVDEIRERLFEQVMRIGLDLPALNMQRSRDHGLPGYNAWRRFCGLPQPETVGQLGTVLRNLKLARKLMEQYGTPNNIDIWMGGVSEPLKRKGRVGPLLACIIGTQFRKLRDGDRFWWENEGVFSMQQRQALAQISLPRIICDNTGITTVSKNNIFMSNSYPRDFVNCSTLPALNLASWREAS
The experiment can be described thus: MPO peroxidation assay (Amplex Red assay). It is filed as biochemical. The settings on record: MPO peroxidation, potency range class; read-out: Amplex Red IC50. Summed up:
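MPO (200 pM) with 40 nM H2O2 was preincubated 10 min at room temperature with inhibitor in 100 mM KPi pH 7.4. A mix of Amplex Red (200 μM) and H2O2 (10 mM) was then added and resorufin fluorescence read kinetically for 15 min. Slopes over 180–540 s gave % inhibition and IC50 via a four-parameter Hill fit.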
For the compound `N#Cc1ccc(-c2cccc(COc3cc(N)nc4[nH]nnc34)c2)cc1` [Example 101, 3′-((5-Amino-3H-[1,2,3]triazolo[4,5-b]pyridin-7-yloxy)methyl)biphenyl-4-carbonitrile], the pIC50 is 7.00 to 9.00.
As to `Nc1cc(OCc2cccc(-c3ccc(-c4ccccc4)cc3)c2)c2nn[nH]c2n1` [Example 102, 7-((4′-Phenylbiphenyl-3-yl)methoxy)-3H-[1,2,3]triazolo[4,5-b]pyridin-5-amine], the negative logarithm of the IC50 (pIC50) was 6.00 to 7.00.
With `Nc1cc(OCc2cccc(-c3cccnc3)c2)c2nn[nH]c2n1` [Example 103, 7-(3-(Pyridin-3-yl)benzyloxy)-3H-[1,2,3]triazolo[4,5-b]pyridin-5-amine] the figure was 7.00 to 9.00.
Consider `Nc1cc(OCc2cccc(-c3ccc(C(=O)Nc4ccccc4)cc3)c2)c2nn[nH]c2n1` [Example 104, 3′-((5-Amino-3H-[1,2,3]triazolo[4,5-b]pyridin-7-yloxy)methyl)-N-phenylbiphenyl-4-carboxamide], for which the pIC50 was 6.00 to 7.00.
Turning to `COc1ccc(-c2cccc(COc3cc(N)nc4[nH]nnc34)c2)cc1F` [Example 105, 7-((3′-Fluoro-4′-methoxybiphenyl-3-yl)methoxy)-3H-[1,2,3]triazolo[4,5-b]pyridin-5-amine], the pIC50 was 7.00 to 9.00.
On to `Nc1cc(OCc2ccc(Br)cc2)c2nn[nH]c2n1` [Example 106, 7-(4-Bromobenzyloxy)-3H-[1,2,3]triazolo[4,5-b]pyridin-5-amine], for which the negative-log IC50 (pIC50) was 7.00 to 9.00.
Consider `CCN(C)C(=O)c1ccc(-c2ccc(COc3cc(N)nc4[nH]nnc34)cc2)cc1F` [Example 107, 4′-((5-Amino-3H-[1,2,3]triazolo[4,5-b]pyridin-7-yloxy)methyl)-N-ethyl-3-fluoro-N-methylbiphenyl-4-carboxamide], for which the pIC50 is 6.00 to 7.00.
Consider `COc1ccc(-c2ccc(COc3cc(N)nc4[nH]nnc34)cc2)cc1F` [Example 108, 7-((3′-Fluoro-4′-methoxybiphenyl-4-yl)methoxy)-3H-[1,2,3]triazolo[4,5-b]pyridin-5-amine], for which the pIC50 is 6.00 to 7.00.
For the compound `Nc1cc(OCc2ccc(-c3ccccc3Cl)cc2)c2nn[nH]c2n1` [Example 109, 7-((2′-Chlorobiphenyl-4-yl)methoxy)-3H-[1,2,3]triazolo[4,5-b]pyridin-5-amine], the pIC50 was 6.00 to 7.00.
With `N#Cc1cccc(-c2ccc(COc3cc(N)nc4[nH]nnc34)cc2)c1` [Example 110, 4′-((5-Amino-3H-[1,2,3]triazolo[4,5-b]pyridin-7-yloxy)methyl)biphenyl-3-carbonitrile] the figure was 5.00 to 6.00.
In the case of `Nc1cc(OCc2ccc(-c3cccc(Cl)c3)cc2)c2nn[nH]c2n1` [Example 111, 7-((3′-Chlorobiphenyl-4-yl)methoxy)-3H-[1,2,3]triazolo[4,5-b]pyridin-5-amine], the pIC50 is 5.00 to 6.00.
With `COc1cccc(-c2ccc(COc3cc(N)nc4[nH]nnc34)cc2)c1` [Example 112, 7-((3′-Methoxybiphenyl-4-yl)methoxy)-3H-[1,2,3]triazolo[4,5-b]pyridin-5-amine], the pIC50 is 6.00 to 7.00.
On to `COc1cccc(-c2cccc(COc3cc(N)nc4[nH]nnc34)c2)c1` [Example 113, 7-((3′-Methoxybiphenyl-3-yl)methoxy)-3H-[1,2,3]triazolo[4,5-b]pyridin-5-amine], for which the pIC50 is 7.00 to 9.00.
`Nc1cc(OCc2ccc(-c3ccccc3F)cc2)c2nn[nH]c2n1` [Example 114, 7-((2′-Fluorobiphenyl-4-yl)methoxy)-3H-[1,2,3]triazolo[4,5-b]pyridin-5-amine]: the pIC50 is 6.00 to 7.00.
On to `COc1c(F)cccc1-c1cccc(COc2cc(N)nc3[nH]nnc23)c1` [Example 115, 7-((3′-Fluoro-2′-methoxybiphenyl-3-yl)methoxy)-3H-[1,2,3]triazolo[4,5-b]pyridin-5-amine], for which the pIC50 was 7.00 to 9.00.
As for `CCN(C)C(=O)c1ccc(-c2cccc(COc3cc(N)nc4[nH]nnc34)c2)cc1F` [Example 116, 3′-((5-Amino-3H-[1,2,3]triazolo[4,5-b]pyridin-7-yloxy)methyl)-N-ethyl-3-fluoro-N-methylbiphenyl-4-carboxamide], the pIC50 was 6.00 to 7.00.
Consider `COc1c(F)cc(F)cc1-c1ccc(COc2cc(N)nc3[nH]nnc23)cc1` [Example 117, 7-((3′,5′-Difluoro-2′-methoxybiphenyl-4-yl)methoxy)-3H-[1,2,3]triazolo[4,5-b]pyridin-5-amine], for which the negative logarithm of the IC50 (pIC50) was 6.00 to 7.00.
With `COc1cccc(Cl)c1-c1ccc(COc2cc(N)nc3[nH]nnc23)cc1` [Example 118, 7-((2′-Chloro-6′-methoxybiphenyl-4-yl)methoxy)-3H-[1,2,3]triazolo[4,5-b]pyridin-5-amine], the pIC50 was 7.00 to 9.00.
With `Nc1cc(OCc2ccc(-c3ccc(OC(F)(F)F)cc3)cc2)c2nn[nH]c2n1` [Example 119, 7-((4′-(Trifluoromethoxy)biphenyl-4-yl)methoxy)-3H-[1,2,3]triazolo[4,5-b]pyridin-5-amine] the figure was 6.00 to 7.00.
The same measure for `Nc1cc(OCc2ccc(-c3cccc(C(F)(F)F)c3)cc2)c2nn[nH]c2n1` [Example 120, 7-((3′-(Trifluoromethyl)biphenyl-4-yl)methoxy)-3H-[1,2,3]triazolo[4,5-b]pyridin-5-amine]: 6.00 to 7.00.
For `Nc1cc(OCc2cccc(-c3cncc(F)c3)c2)c2nn[nH]c2n1` [Example 121, 7-(3-(5-Fluoropyridin-3-yl)benzyloxy)-3H-[1,2,3]triazolo[4,5-b]pyridin-5-amine], the pIC50 was 7.00 to 9.00.
On to `COc1ccc(-c2ccc(COc3cc(N)nc4[nH]nnc34)cc2)cc1` [Example 122, 7-((4′-Methoxybiphenyl-4-yl)methoxy)-3H-[1,2,3]triazolo[4,5-b]pyridin-5-amine], for which the negative-log IC50 (pIC50) is 7.00 to 9.00.
As for `COc1ccccc1-c1ccc(COc2cc(N)nc3[nH]nnc23)cc1` [Example 123, 7-((2′-Methoxybiphenyl-4-yl)methoxy)-3H-[1,2,3]triazolo[4,5-b]pyridin-5-amine], the pIC50 was 7.00 to 9.00.
With `COc1cccc(Cl)c1-c1cccc(COc2cc(N)nc3[nH]nnc23)c1` [Example 124, 7-((2′-Chloro-6′-methoxybiphenyl-3-yl)methoxy)-3H-[1,2,3]triazolo[4,5-b]pyridin-5-amine] the figure was 6.00 to 7.00; with `COc1ccccc1COc1cc(N)nc2[nH]nnc12` [Example 125], 7.00 to 9.00.
In the case of `Nc1cc(OC(c2ccccc2)C(F)(F)F)c2nn[nH]c2n1` (stereo not drawn) [Example 126, 7-(2,2,2-Trifluoro-1-phenylethoxy)-3H-[1,2,3]triazolo[4,5-b]pyridin-5-amine], the pIC50 was 6.00 to 7.00.
Consider `COc1cccc(COc2cc(N)nc3[nH]nnc23)c1` [Example 127, 7-((3-Methoxybenzyl)oxy)-3H-[1,2,3]triazolo[4,5-b]pyridin-5-amine], for which the pIC50 was 6.00 to 7.00.
With `CCOc1ccccc1COc1cc(N)nc2[nH]nnc12` [Example 128, 7-((2-Ethoxybenzyl)oxy)-3H-[1,2,3]triazolo[4,5-b]pyridin-5-amine], the negative logarithm of the IC50 (pIC50) is 7.00 to 9.00.
Take `Nc1cc(OCc2cccc(F)c2F)c2nn[nH]c2n1` [Example 129, 7-((2,3-Difluorobenzyl)oxy)-3H-[1,2,3]triazolo[4,5-b]pyridin-5-amine]: the pIC50 is 7.00 to 9.00.
For `Nc1cc(OCc2ccc(F)cc2F)c2nn[nH]c2n1` [Example 130, 7-((2,4-Difluorobenzyl)oxy)-3H-[1,2,3]triazolo[4,5-b]pyridin-5-amine], the pIC50 was 7.00 to 9.00.

Source of the values: patent US10316035B2, “Triazolopyridine inhibitors of myeloperoxidase” (BRISTOL-MYERS SQUIBB COMPANY, priority 2015, dated 2019).
